Measured values from patent publication US9132140B2, “Boronic acid derivatives and therapeutic uses thereof” (Rempex Pharmaceuticals, Inc., priority 2013, dated 2015).

Tests used:
EA1019 (SHV-5, VIM-1) = assay type: cell-based, Enterobacter aerogenes
Excerpt: (§1) Several strains simultaneously expressing both class A and class B carbapenemases, which were constructed using conjugation, were also included in the panel.

CTX-M-14 = CTX-M-14 (Escherichia coli, UniProt Q9L5C7); experiment: Inhibition of purified beta-lactamase, nitrocefin cleavage; assay type: biochemical
Sequence of CTX-M-14 (Q9L5C7 entry or part of it): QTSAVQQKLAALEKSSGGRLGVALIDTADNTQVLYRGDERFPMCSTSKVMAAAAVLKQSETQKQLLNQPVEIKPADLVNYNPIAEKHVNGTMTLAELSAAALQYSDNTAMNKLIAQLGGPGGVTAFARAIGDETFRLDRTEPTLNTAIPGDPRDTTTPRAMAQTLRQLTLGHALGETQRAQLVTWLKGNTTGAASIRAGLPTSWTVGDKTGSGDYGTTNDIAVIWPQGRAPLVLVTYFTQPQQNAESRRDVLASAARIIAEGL
Protocol: (§2) Purified enzymes were mixed with various concentrations of inhibitors in reaction buffer and incubated for 10 min at room temperature. Nitrocefin was added and substrate cleavage profiles were recorded at 490 nm every 10 sec for 10 min.

OXA-48 = OXA-48 (Klebsiella pneumoniae, UniProt Q6XEC0); experiment: as above; assay type: biochemical; conditions: read-out: Ki (OXA-48, NCF)
Sequence of OXA-48 (Q6XEC0 23-265, looked up): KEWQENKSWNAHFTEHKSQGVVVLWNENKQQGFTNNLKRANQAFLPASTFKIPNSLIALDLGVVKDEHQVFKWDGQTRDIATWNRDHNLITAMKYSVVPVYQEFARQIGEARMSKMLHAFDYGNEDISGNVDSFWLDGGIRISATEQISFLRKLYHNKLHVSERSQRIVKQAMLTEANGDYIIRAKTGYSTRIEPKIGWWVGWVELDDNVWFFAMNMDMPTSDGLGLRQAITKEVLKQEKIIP
Protocol: as §2

SHV-12 = SHV-12 (Klebsiella pneumoniae, UniProt P0AD64, E235K/G234S/L31Q); experiment: as above; assay type: biochemical; conditions: read-out: Ki (SHV-12, NCF)
Sequence of SHV-12 (P0AD64 22-286 L31Q/G234S/E235K): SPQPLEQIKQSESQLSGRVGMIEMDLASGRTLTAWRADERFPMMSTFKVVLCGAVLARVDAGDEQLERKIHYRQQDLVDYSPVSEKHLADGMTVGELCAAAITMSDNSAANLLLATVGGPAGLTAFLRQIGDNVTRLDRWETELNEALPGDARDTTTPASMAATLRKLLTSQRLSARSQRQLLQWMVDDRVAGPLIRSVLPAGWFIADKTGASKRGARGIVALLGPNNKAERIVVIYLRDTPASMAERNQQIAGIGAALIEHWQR
Protocol: as §2

EC1068 (VIM-1) = assay type: cell-based, Escherichia coli
Excerpt: as §1

EC1061 (NDM-1, CMY-6) = assay type: cell-based, Escherichia coli
Excerpt: as §1

[1] = test system: EC1064 (NDM-1, CMY-6, CTX-M-15); assay type: cell-based, Escherichia coli
Excerpt: as §1

EC1065 (IMP-1 CMY-2) = assay type: cell-based, Escherichia coli
Excerpt: as §1

ECL1055 (KPC) = assay type: cell-based, Enterobacter cloacae
Excerpt: as §1

ECLM1018 (VIM, KPC) = assay type: cell-based, Enterobacter cloacae
Excerpt: as §1

ECLM1015 (NDM, KPC) = assay type: cell-based, Enterobacter cloacae
Excerpt: as §1

ECLM1014 (NDM, KPC) = assay type: cell-based, Enterobacter cloacae
Excerpt: as §1

ECLM1013 (NDM, KPC) = assay type: cell-based, Enterobacter cloacae
Excerpt: as §1

ECL1045 (VIM-1) = assay type: cell-based, Enterobacter cloacae
Excerpt: as §1

ECL1082 (VIM-1) = assay type: cell-based, Enterobacter cloacae
Excerpt: as §1

P99/AmpC of ECL = P99/AmpC of ECL (Enterobacter cloacae, UniProt P05364); experiment: biochemical; conditions: nitrocefin; read-out: Ki (P99/AmpC of ECL, NCF)
Sequence of P99/AmpC of ECL (P05364 21-381): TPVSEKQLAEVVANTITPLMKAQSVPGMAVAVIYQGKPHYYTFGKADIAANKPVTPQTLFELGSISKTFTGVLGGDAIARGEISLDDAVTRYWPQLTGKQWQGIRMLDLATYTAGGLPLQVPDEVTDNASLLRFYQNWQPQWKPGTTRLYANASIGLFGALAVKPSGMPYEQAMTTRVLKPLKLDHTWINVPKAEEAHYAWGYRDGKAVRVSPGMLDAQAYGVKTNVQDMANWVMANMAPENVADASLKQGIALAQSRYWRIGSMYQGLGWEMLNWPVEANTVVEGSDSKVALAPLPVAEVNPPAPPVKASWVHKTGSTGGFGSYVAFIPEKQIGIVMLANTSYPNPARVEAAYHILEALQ
Protocol: as §2

Nn1cnnc1S[C@H]1Cc2cccc(C(=O)O)c2OB1O [Compound 14, (R)-3-(4-amino-4H-1,2,4-triazol-3-ylthio)-2-hydroxy-3,4-dihydro-2H-benzo[e][1,2]oxaborinine-8-carboxylic acid]
Imipenem + 14 MIC (EA1019 (SHV-5, VIM-1)): Y (key: X: MIC of less than 1 μg/mL; Y: MIC of 1 μg/mL to 10 μg/mL; Z: MIC of greater than 10 μg/mL) | Meropenem + 14 MIC (EA1019 (SHV-5, VIM-1)): X (key: X: MIC of less than 1 μg/mL; Y: MIC of 1 μg/mL to 10 μg/mL; Z: MIC of greater than 10 μg/mL) | Ki (CTX-M-14): < 100 nM | Ki (OXA-48): < 100 nM | Ki (SHV-12): < 100 nM | Imipenem + 14 MIC (EC1068 (VIM-1)): X (key: X: MIC of less than 1 μg/mL; Y: MIC of 1 μg/mL to 10 μg/mL; Z: MIC of greater than 10 μg/mL) | Meropenem + 14 MIC (EC1068 (VIM-1)): X (key: X: MIC of less than 1 μg/mL; Y: MIC of 1 μg/mL to 10 μg/mL; Z: MIC of greater than 10 μg/mL) | Imipenem + 14 MIC (EC1061 (NDM-1, CMY-6)): X (key: X: MIC of less than 1 μg/mL; Y: MIC of 1 μg/mL to 10 μg/mL; Z: MIC of greater than 10 μg/mL) | Meropenem + 14 MIC (EC1061 (NDM-1, CMY-6)): X (key: X: MIC of less than 1 μg/mL; Y: MIC of 1 μg/mL to 10 μg/mL; Z: MIC of greater than 10 μg/mL) | Imipenem + 14 MIC [1]: X (key: X: MIC of less than 1 μg/mL; Y: MIC of 1 μg/mL to 10 μg/mL; Z: MIC of greater than 10 μg/mL) | Meropenem + 14 MIC [1]: Y (key: X: MIC of less than 1 μg/mL; Y: MIC of 1 μg/mL to 10 μg/mL; Z: MIC of greater than 10 μg/mL) | Imipenem + 14 MIC (EC1065 (IMP-1 CMY-2)): X (key: X: MIC of less than 1 μg/mL; Y: MIC of 1 μg/mL to 10 μg/mL; Z: MIC of greater than 10 μg/mL) | Meropenem + 14 MIC (EC1065 (IMP-1 CMY-2)): X (key: X: MIC of less than 1 μg/mL; Y: MIC of 1 μg/mL to 10 μg/mL; Z: MIC of greater than 10 μg/mL) | Imipenem + 14 MIC (ECL1055 (KPC)): X (key: X: MIC of less than 1 μg/mL; Y: MIC of 1 μg/mL to 10 μg/mL; Z: MIC of greater than 10 μg/mL) | Meropenem + 14 MIC (ECL1055 (KPC)): X (key: X: MIC of less than 1 μg/mL; Y: MIC of 1 μg/mL to 10 μg/mL; Z: MIC of greater than 10 μg/mL) | Imipenem + 14 MIC (ECLM1018 (VIM, KPC)): Y (key: X: MIC of less than 1 μg/mL; Y: MIC of 1 μg/mL to 10 μg/mL; Z: MIC of greater than 10 μg/mL) | Meropenem + 14 MIC (ECLM1018 (VIM, KPC)): X (key: X: MIC of less than 1 μg/mL; Y: MIC of 1 μg/mL to 10 μg/mL; Z: MIC of greater than 10 μg/mL) | Imipenem + 14 MIC (ECLM1015 (NDM, KPC)): X (key: X: MIC of less than 1 μg/mL; Y: MIC of 1 μg/mL to 10 μg/mL; Z: MIC of greater than 10 μg/mL) | Meropenem + 14 MIC (ECLM1015 (NDM, KPC)): X (key: X: MIC of less than 1 μg/mL; Y: MIC of 1 μg/mL to 10 μg/mL; Z: MIC of greater than 10 μg/mL) | Imipenem + 14 MIC (ECLM1014 (NDM, KPC)): X (key: X: MIC of less than 1 μg/mL; Y: MIC of 1 μg/mL to 10 μg/mL; Z: MIC of greater than 10 μg/mL) | Meropenem + 14 MIC (ECLM1014 (NDM, KPC)): X (key: X: MIC of less than 1 μg/mL; Y: MIC of 1 μg/mL to 10 μg/mL; Z: MIC of greater than 10 μg/mL) | Imipenem + 14 MIC (ECLM1013 (NDM, KPC)): X (key: X: MIC of less than 1 μg/mL; Y: MIC of 1 μg/mL to 10 μg/mL; Z: MIC of greater than 10 μg/mL) | Meropenem + 14 MIC (ECLM1013 (NDM, KPC)): X (key: X: MIC of less than 1 μg/mL; Y: MIC of 1 μg/mL to 10 μg/mL; Z: MIC of greater than 10 μg/mL) | Imipenem + 14 MIC (ECL1045 (VIM-1)): X (key: X: MIC of less than 1 μg/mL; Y: MIC of 1 μg/mL to 10 μg/mL; Z: MIC of greater than 10 μg/mL) | Meropenem + 14 MIC (ECL1045 (VIM-1)): X (key: X: MIC of less than 1 μg/mL; Y: MIC of 1 μg/mL to 10 μg/mL; Z: MIC of greater than 10 μg/mL) | Imipenem + 14 MIC (ECL1082 (VIM-1)): X (key: X: MIC of less than 1 μg/mL; Y: MIC of 1 μg/mL to 10 μg/mL; Z: MIC of greater than 10 μg/mL) | Meropenem + 14 MIC (ECL1082 (VIM-1)): X (key: X: MIC of less than 1 μg/mL; Y: MIC of 1 μg/mL to 10 μg/mL; Z: MIC of greater than 10 μg/mL) | Ki (P99/AmpC of ECL): < 100 nM
